Target: T1, human CaV1.2 (Homo sapiens, UniProt Q13936)
T1 construct: expressed in transfected cells; host or cells: Flp-In 293 T-Rex (HEK293), monoclonal CaV1.2-HEK293(AUX) clone 2-19B; doxycycline-induced auxiliary subunits
Test: QPatch channel biophysics assay (channel gating, V1/2 of activation, inactivation) in CaV1.2-HEK293(AUX) cells
Format: cell-based
Details: Table 9; shift of half-way channel activation voltage V1/2
Source text: The monoclonal CaV1.2-HEK293(AUX) cell line constitutively expresses human CaV1.2 alpha1C (α1C) subunit (CACNA1C) and has doxycycline-inducible expression of the alpha2delta (α2Δ2) auxiliary subunit (CACNA2D2) and beta2 (02) auxiliary subunit (CACNB2). To generate the cell line, expression vectors pcDNA5.0/FRT-TO-CACNA2D2-FCS-P2A-CACNB2 and pCMV6-entry-CACNA1C were established via gene synthesis and cloning. Here, pcDNA5.0/FRT-TO plasmid is from Invitrogen, pCMV6-entry is from Origene, FCS stands for Furin Cleavage Site, P2A is a peptide self-cleavage sequence derived from porcine teschovirus-1, and FRT is the Flippase recognition target site. Next, parental line Flp-In™ 293 T-Rex (Invitrogen) was transfected with pcDNA5.0/FRT-TO-CACNA2D2-FCS-P2A-CACNB2 and Flippase vector pOG44 (Invitrogen) to establish targeted integration of the CACNA2D2-FCS-P2A-CACNB2 expression cassette into the pre-engineered FRT site in Flp-In™ 293 T-Rex. This intermediate cell line was then transfected with pCMV6-entry-CACNA1C to establish stable CACNA1C expression. Clonal isolation was achieved under Neomycin selection. A cell clone (2-19B) with good voltage-dependent Barium current (see electrophysiology methods below) was selected for characterization of CaV1.2 activators.
24 hours prior an electrophysiology experiment, doxycycline (1 μg/ml) was added to the growth medium (Table 6), and 25 μM of verapamil was co-applied to prevent calcium influx triggered cell death. Cell confluency should reach 70%-80% right before the experiment. To harvest cells (from a T175 cm^2 flask as an example), growth media were removed completely, and the cells were rinsed with 10 mL of D-PBS. D-PBS was aspirated, and 10 mL of Detachin (Genlantis) was added and the plate was placed in a 37° C. incubator for 10 minutes. Detached cells were placed into a 15 mL conical tube and spun at 1000 rpm for 2 minutes. Supernatant was removed, and cells were re-suspended in QPatch complete media (Table 7) to desired cell density of 1.5-3 million cells per QPatch run. Each experimental run uses 1.5 mL of cells.
The cells suspension was taken to the Sophion QPatch platform that uses whole-cell voltage clamp to measure barium currents conducted through CaV1.2 on single-hole QPlates. Extracellular and intracellular patch clamp solutions are described in Tables 7 and 8, respectively. A dose-response assay protocol was used to determine the maximal fold change of peak inward current (Emax) and potency (EC50) of each compound. The protocol had eight liquid periods. The first liquid period was to stabilize current amplitude, which was monitored using repetitive 200-ms voltage pulses stepping from −80 mV to 0 mV. The second liquid period was to determine baseline current amplitude in the presence of vehicle control, using a single 20-ms voltage pulse stepping from −80 mV to 0 mV. The third through eighth liquid periods were used to ascertain a 6-dose response to compound treatments, also using single 20-ms voltage pulses stepping from −80 mV to 0 mV. The EC50 was generated using the following equation Iconcentration=Ibase+(Ifull−Ibase)*c^n/(XC50^n+c^n), where c is the concentration and n is the Hill coefficient constant. Ifull is the maximal current achievable, and Ibase is 0. A channel biophysics assay protocol was used to determine channel gating properties including current-voltage relationship (IV curves), half-way channel activation voltage (V1/2), rate of channel inactivation (tau), and amplitude of tail current. Among these, V1/2 was derived from fitting equation G(V)=Gvmin+(Gvmax−Gvmin)/(1+exp(−(V−V½)/Vslope)), where G stands for conductance, Gvmin equals 0, Gvmax is the maximal conductance, and Vslope is a slope factor. G(V) was pre-calculated from equation G(V)=I(V)/(V−0.06), for each experimentally applied depolarization potential (V) and the corresponding current amplitude (I(V)), and 0.06 in the equation was the experimentally determined reversal potential in volts. […]

T1 sequence (Q13936 1-2138 isoform Q13936-23): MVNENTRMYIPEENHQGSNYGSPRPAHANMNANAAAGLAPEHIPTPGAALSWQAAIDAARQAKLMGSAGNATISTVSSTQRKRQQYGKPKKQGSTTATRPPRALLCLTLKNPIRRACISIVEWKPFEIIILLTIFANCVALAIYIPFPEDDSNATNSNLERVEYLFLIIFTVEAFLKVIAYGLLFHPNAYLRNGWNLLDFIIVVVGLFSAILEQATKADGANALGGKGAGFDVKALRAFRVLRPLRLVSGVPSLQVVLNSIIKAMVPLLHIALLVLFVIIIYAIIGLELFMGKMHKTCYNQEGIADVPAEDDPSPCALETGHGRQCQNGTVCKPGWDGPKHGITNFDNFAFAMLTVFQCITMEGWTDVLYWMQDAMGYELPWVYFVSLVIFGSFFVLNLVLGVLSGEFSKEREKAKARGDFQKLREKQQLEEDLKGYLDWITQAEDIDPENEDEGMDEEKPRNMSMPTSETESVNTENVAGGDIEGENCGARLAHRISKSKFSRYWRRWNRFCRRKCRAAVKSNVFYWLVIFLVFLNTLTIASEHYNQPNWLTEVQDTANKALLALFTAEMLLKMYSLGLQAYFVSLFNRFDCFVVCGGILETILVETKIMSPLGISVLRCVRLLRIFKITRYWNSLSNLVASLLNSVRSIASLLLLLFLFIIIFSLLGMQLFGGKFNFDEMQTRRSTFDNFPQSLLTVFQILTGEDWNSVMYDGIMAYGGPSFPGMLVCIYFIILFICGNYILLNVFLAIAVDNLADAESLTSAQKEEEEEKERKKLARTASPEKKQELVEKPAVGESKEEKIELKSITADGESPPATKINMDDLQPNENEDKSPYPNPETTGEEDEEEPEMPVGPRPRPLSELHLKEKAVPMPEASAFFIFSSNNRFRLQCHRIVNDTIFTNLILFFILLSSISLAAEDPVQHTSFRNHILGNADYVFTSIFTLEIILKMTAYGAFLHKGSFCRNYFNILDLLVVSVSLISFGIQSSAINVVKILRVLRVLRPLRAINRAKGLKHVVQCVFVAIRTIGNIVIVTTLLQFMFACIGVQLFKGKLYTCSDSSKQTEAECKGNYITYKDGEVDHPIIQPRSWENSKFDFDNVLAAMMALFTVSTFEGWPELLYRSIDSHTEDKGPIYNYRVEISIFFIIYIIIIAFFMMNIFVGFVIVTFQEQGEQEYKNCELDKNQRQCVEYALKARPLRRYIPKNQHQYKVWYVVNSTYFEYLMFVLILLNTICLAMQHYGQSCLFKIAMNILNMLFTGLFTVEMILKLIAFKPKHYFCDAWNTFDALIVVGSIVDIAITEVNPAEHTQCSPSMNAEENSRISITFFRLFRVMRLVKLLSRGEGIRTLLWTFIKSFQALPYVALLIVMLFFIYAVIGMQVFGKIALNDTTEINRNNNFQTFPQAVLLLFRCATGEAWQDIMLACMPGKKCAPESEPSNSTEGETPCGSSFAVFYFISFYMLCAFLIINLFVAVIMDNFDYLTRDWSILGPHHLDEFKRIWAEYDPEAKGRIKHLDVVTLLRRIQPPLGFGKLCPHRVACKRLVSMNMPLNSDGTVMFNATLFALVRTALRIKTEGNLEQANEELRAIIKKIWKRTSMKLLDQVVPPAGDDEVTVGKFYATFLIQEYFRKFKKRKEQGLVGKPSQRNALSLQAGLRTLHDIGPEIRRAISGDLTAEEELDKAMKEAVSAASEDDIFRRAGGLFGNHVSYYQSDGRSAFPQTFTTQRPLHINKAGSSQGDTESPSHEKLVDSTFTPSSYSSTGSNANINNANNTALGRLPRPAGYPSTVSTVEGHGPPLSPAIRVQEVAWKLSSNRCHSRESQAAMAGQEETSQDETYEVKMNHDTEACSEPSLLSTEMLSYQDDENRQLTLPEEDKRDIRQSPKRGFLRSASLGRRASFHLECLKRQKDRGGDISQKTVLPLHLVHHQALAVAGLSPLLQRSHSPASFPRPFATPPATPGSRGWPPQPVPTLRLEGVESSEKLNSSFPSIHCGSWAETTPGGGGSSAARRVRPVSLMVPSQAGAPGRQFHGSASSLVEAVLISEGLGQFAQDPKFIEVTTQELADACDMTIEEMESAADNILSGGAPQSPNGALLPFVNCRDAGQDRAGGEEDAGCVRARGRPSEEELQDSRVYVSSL
T1 sequence (Q9NY47 19-1001 partner limits assumed): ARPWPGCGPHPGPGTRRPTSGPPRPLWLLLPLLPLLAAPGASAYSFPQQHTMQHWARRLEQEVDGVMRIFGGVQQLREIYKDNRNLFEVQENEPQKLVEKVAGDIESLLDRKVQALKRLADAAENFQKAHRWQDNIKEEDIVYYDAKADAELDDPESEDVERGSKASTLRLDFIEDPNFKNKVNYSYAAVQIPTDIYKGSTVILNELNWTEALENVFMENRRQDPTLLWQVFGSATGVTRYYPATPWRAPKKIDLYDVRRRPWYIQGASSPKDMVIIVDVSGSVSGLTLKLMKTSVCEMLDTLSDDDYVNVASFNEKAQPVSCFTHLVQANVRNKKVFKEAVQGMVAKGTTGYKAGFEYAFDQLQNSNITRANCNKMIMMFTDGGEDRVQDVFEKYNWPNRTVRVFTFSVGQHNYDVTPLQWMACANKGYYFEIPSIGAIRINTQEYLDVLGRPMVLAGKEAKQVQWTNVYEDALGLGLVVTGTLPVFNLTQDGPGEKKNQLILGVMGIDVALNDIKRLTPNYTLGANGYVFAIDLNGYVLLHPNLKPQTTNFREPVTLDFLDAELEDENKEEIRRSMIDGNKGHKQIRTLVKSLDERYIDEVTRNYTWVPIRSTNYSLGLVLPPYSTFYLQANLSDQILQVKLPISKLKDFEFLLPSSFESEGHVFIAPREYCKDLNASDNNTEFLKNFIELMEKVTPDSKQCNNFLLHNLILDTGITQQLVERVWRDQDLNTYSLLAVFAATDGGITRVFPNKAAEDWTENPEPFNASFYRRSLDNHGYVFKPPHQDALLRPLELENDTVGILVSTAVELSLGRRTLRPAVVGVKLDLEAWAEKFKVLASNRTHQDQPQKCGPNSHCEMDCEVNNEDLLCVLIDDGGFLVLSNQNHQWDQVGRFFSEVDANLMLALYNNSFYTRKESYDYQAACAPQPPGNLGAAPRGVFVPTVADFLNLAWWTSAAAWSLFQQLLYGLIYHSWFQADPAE
T1 sequence (Q9NY47 1002-1150 partner limits assumed): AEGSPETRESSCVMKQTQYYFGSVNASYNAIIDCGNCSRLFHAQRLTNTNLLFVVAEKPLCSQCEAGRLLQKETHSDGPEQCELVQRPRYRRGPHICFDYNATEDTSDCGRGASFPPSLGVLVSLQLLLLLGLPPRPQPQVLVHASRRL
T1 sequence (Q08289 whole entry partner): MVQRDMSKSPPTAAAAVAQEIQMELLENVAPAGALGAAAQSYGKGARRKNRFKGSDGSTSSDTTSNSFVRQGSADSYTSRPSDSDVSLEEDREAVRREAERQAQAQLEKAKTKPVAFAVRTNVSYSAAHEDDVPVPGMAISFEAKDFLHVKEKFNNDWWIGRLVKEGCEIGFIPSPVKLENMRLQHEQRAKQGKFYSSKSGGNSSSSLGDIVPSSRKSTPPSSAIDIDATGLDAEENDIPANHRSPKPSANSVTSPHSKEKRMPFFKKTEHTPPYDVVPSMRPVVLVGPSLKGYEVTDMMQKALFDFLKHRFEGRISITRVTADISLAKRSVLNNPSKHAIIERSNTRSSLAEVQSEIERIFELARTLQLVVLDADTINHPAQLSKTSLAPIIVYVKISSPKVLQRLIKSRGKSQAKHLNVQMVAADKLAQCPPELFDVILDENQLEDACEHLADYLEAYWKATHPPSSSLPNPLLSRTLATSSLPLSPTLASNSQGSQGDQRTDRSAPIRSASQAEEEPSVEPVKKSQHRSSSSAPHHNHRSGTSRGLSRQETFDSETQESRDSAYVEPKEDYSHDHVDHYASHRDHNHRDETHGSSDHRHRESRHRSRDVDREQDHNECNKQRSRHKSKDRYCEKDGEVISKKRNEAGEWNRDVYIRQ

SMILES	Biophysics voltage shift (mV)
COC(=O)C1=C(CF)NC2=C(C(=O)OC2)[C@H]1c1cccc(F)c1[C@H]1CC1(F)F (single isomer, unassigned) [Example 1, methyl (R)-4-(2-((R or S)-2,2-difluorocyclopropyl)-3-fluorophenyl)-2-(fluoromethyl)-5-oxo-1,4,5,7-tetrahydrofuro[3,4-b]pyridine-3-carboxylate]	−5.9
COC(=O)C1=C(CF)NC2=C(C(=O)OC2)[C@H]1c1cccc(F)c1C1CC1 (single isomer, unassigned) [Example 2]	−4.5
COC(=O)C1=C(CF)NC2=C(C(=O)OC2)[C@H]1c1cc(F)cc(F)c1[C@H]1CC1(F)F (single isomer, unassigned) [Example 3, Methyl (R)-4-(2-((R or S)-2,2-difluorocyclopropyl)-3,5-difluorophenyl)-2-(fluoromethyl)-5-oxo-1,4,5,7-tetrahydrofuro[3,4-b]pyridine-3-carboxylate]	0.1
COC(=O)C1=C(CF)NC2=C(C(=O)OC2)[C@H]1c1cc(F)cc(F)c1[C@H]1CC1(F)F (single isomer, unassigned) [Example 4, Methyl (R)-4-(2-((R or S)-2,2-difluorocyclopropyl)-3,5-difluorophenyl)-2-(fluoromethyl)-5-oxo-1,4,5,7-tetrahydrofuro[3,4-b]pyridine-3-carboxylate]	−4.4
COC(=O)C1=C(CF)NC2=C(C(=O)OC2)[C@H]1c1cc(F)cc(F)c1[C@H](C)F (single isomer, unassigned) [Example 5, methyl (R)-4-(3,5-difluoro-2-((R or S)-1-fluoroethyl)phenyl)-2-(fluoromethyl)-5-oxo-1,4,5,7-tetrahydrofuro[3,4-b]pyridine-3-carboxylate]	−4.6
COC(=O)C1=C(CF)NC2=C(C(=O)OC2)[C@H]1c1cccc(F)c1[C@H](F)CF (single isomer, unassigned) [Example 6]	−6.3
COC(=O)C1=C(CF)NC2=C(C(=O)CC2)[C@H]1c1cccc(F)c1[C@@H](F)CF (single isomer, unassigned) [Example 7, methyl (R)-4-(2-((R or S)-1,2-difluoroethyl)-3-fluorophenyl)-2-(fluoromethyl)-5-oxo-4,5,6,7-tetrahydro-1H-cyclopenta[b]pyridine-3-carboxylate]	−6.3
COC(=O)C1=C(CF)NC2=C(C(=O)OC2)[C@H]1c1cccc(F)c1[C@@H](C)F (single isomer, unassigned) [Example 8]	−5.4
COC(=O)C1=C(CF)NC2=C(C(=O)OC2)[C@H]1c1ccccc1OC(F)F (single isomer, unassigned) [Example 9]	−4.5
COC(=O)C1=C(CF)NC2=C(C(=O)OC2)[C@H]1c1cc(F)cc(F)c1C(F)(F)F (single isomer, unassigned) [Example 10]	−2.3
COC(=O)C1=C(CF)NC2=C(C(=O)OC2)[C@H]1c1cccc(F)c1CC(F)F (single isomer, unassigned) [Example 11]	−5.0
COC(=O)C1=C(CF)NC2=C(C(=O)OC2)[C@H]1c1cc(F)cc(F)c1C1CC1 (single isomer, unassigned) [Example 13]	−0.7
COC(=O)C1=C(CF)NC2=C(C(=O)OC2)[C@H]1c1cccc(F)c1C(F)F (single isomer, unassigned) [Example 15]	−5.7
COC(=O)C1=C(CF)NC2=C(C(=O)OC2)[C@H]1c1cc(F)cc(F)c1[C@H](F)CF (single isomer, unassigned) [Example 16, methyl (R)-4-(2-((R or S)-1,2-difluoroethyl)-3,5-difluorophenyl)-2-(fluoromethyl)-5-oxo-1,4,5,7-tetrahydrofuro[3,4-b]pyridine-3-carboxylate]	−5.8
COC(=O)C1=C(CF)NC2=C(C(=O)OC2)[C@H]1c1cccc(F)c1C(F)(F)F (single isomer, unassigned) [Example 17]	−6.8
COC(=O)C1=C(CF)NC2=C(C(=O)OC2)[C@H]1c1cc(F)cc(F)c1C(F)F (single isomer, unassigned) [Example 18]	−5.2
COC(=O)C1=C(CF)NC2=C(C(=O)OC2)[C@H]1c1cc(F)ccc1C(F)(F)F (single isomer, unassigned) [Example 23]	−6.2
COC(=O)C1=C(CF)NC2=C(C(=O)CC2)[C@H]1c1cccc(F)c1C1CC1 (single isomer, unassigned) [Example 28]	−7.2

— US20250304594A1, “METHYL (R)-2-(FLUOROMETHYL)-5-OXO-4-PHENYL-4,5,6,7-TETRAHYDRO-1H-CYCLOPENTA[B]PYRIDINE-3-CARBOXYLATE AND METHYL (R)-2-(FLUOROMETHYL)-5-OXO-4-PHENYL-1,4,5,7-TETRAHYDROFURO[3,4-B]PYRIDINE-3-CARBOXYLATE AS Cav1,2 ACTIVATORS” (Novartis AG, priority 2020, published 2025)
